Key:
[1] = Plasma AP-III levels (radioimmunoassay) in rats, second test: varied AP-III infusion rate, constant thiorphan dose; type: in vivo, rat; conditions: for Plasma AP-III concn.: thiorphan 3 mg/kg arterial after 30 min sample
Method: Plasma levels of atriopeptin III (AP-III) were tested in rats in which the AP-III was infused intravenously both with and without contemporaneous administration of thiorphan.
Male Sprague-Dawley rats, 240-310 g, were used for all tests. The rats were housed in the test facilities for at least 6 days before they were used.
Cannulas were made of PE-10 (polyethylene) tubing inserted and glued into a piece of PE-50 tubing. Rats were anesthetized with pentobarbital (50 mg/kg i.p.) and had cannulas inserted into the left femoral vein and artery. Both were inserted four cm into the vessels and tied securely. They were then tunnelled under the skin and brought out between the rat's shoulder blades and then cut so that only 1-2 cm was externalized. Cannulas were glued in place using Superglue and filled with saline containing 100 units heparin/ml. Rats were allowed to wake up and then housed individually with food and water ad libitum.
Two days after surgery, the rats were weighed and put into restraining cages that allowed limited movement. […] Blood was collected from the femoral artery and replaced with saline containing 10 units heparin/ml. In most tests, 0.3 ml blood was taken, except that when basal AP-III levels were measured 0.4 ml blood was withdrawn. Blood was immediately centrifuged in a microcentrifuge for one minute and plasma was frozen in plastic tubes placed on dry ice. Samples were kept in a -80° C. freezer until they were analyzed.
Thiorphan was dissolved in a minimal amount of 0.1 N NaOH to produce the sodium salt. The solution was immediately neutralized using 0.5 N HCl and diluted to a final concentration with 0.9% saline.
In the second test, the level of thiorphan was kept constant at 3 mg/kg and the rate of AP-III infusion was varied. AP-III was infused into the femoral vein for a total of 60 minutes at a rate of 150,450 and 900 ng/kg/min; another group of rats received only an infusion of dextrose/saline to determine if thiorphan affected the basal levels of AP-III. Blood was taken at 15 and 30 minutes after the start of the AP-III infusion to check for a steady state AP-III plasma concentration. After the 30 min sample, thiorphan (3 mg/kg) was injected arterially and additional blood samples were taken 15 and 30 min later (45 and 60 minutes after the start of the AP-III infusion).
Plasma AP-III levels were analyzed by radioimmunoassay using a second antibody to separate free and bound AP-III. The label was ^125 I-AP-III that was purified by HPLC after iodination. Conditions were set so that 35-40% of the total counts were precipitated. The incubation medium contained sodium phosphate, pH 7.4, 0.25% bovine serum albumin (BSA), 0.5% sodium azide and 3% PEG-8000 (polyethylene glycol). The primary antibody was from a guinea pig immunized against AP-III. The incubations were done overnight at 6° C. The next day, 2 ml of 0.125% BSA was added to each tube and then they were centrifuged for 45 min at 3000 rpm. They were decanted and the radioactivity was counted in a Micromedic gamma counter. The standard curve contained 10 to 600 pg AP-III/tube. Only the linear portion of the curve was used for quantification. Plasma samples were diluted so that the AP-III concentrations were in the range of the standard curve.

[2] = test system: rabbit kidney brush border membranes (RBBM); assay: physchem; type: biochemical; conditions: 20 μg RBBM, 100 nM inhibitor, 60 min, 25° C.
Method: The kelatorphan was prepared according to the method described for compound 13 by Fournie-Saluski et al., J. Med. Chem. 28, 1158-1169 (1985). The following procedure was performed at 4° C. Rabbit kidneys were obtained fresh and were perfused with buffer A (containing 5 mM Tris, pH 7.5, 0.25 M sucrose, 3 mM MgCl2 and 1 mM EDTA) to remove the blood. (EDTA=ethylenediaminetetraacetic acid.) The kidneys were minced, homogenized in 5 volumes of ice-cold buffer A with a Brinkmann Polytron homogenizer and filtered through two layers of cheesecloth. The filtrate was centrifuged at 5,000×g for 20 min, the pellet was discarded and the supernatant was centrifuged at 15,000×g for 20 min. The supernatant was retained and then centrifuged at 100,000×g for 90 min. The pellet was resuspended in 50 mM Tris, pH 7.5, and the suspension was centrifuged at 100,000×g for 90 min. The washed pellet was resuspended in 50 mM Tris, pH 7.5, to give a final protein concentration of 4 mg/ml using the protein assay of Bradford, Anal. Biochem. 72, 248-254 (1976). The membrane preparation was assayed for aminopeptidase and alkaline phosphatase activities which are the marker enzymes for the kidney brush border. See Inui et al., Biochim. Biophys. Acta 647, 150-154 (1981). The final membrane preparation was enriched 8-fold in alkaline phosphatase activity, and 11-fold in aminopeptidase activity, compared to the homogenate. Renal brush border membranes (10-20 μg) were preincubated for 15 min at 25° C. in a solution containing the inhibitor and 50 mM Tris, pH 7.5. […] Incubations were for 60 min at 25° C. and were terminated by removing the membranes by filtration using Gelman GA-6 filters. The filtrates were immediately frozen on dry ice and were stable for 1 week when stored at -80° C. Samples containing the peptide degradation products were resolved by C18 reversed phase high pressure liquid chromatography (HPLC). The frozen samples were thawed immediately before injection onto a Vydac C18 column (4.6 mm I.D.×25 cm; 5 micron/300 Å) equilibrated with water containing 0.05% trifluoracetic acid (TFA). Peptide fragments and starting material were separated on a linear gradient of 0-35% acetonitrile also containing 0.05% TFA. Both the gradient and the flow rate (1 ml/min) were maintained by a Waters HPLC system consisting of two Model 510 pumps connected to an Automated Gradient Controller. Column effluent was monitored at 220 nm by a Waters Model 481 spectrophotometer, and the amount of atrial peptide material and peptide fragments were measured via a Hewlett-Packard Model […] integrator. […] Therefore, in those cases where the N-terminal serine was removed, the total amount of biologically active material remaining at the end of the incubation was taken as the % starting material remaining plus % des […] -AP-I or des […] -AP-III (as appropriate), as calculated from the peak areas of the individual peptides on HPLC.

In the case of `O=C(O)CNC(=O)C(CS)Cc1ccccc1` (racemic) [thiorphan, N-(DL-2-benzyl-3-mercapto-propionyl)glycine], the “Plasma AP-III concn.” value ([1]; rat, AP-III 150 ng/kg/min i.v. infusion, 45 min) is reported as 2.6 ± 0.8 ng/mL, the “Plasma AP-III concn.” value ([1]; rat, AP-III 150 ng/kg/min i.v. infusion, 60 min) is reported as 3.3 ± 1.7 ng/mL and the “Plasma AP-III concn.” value ([1]; rat, AP-III 450 ng/kg/min i.v. infusion, 45 min) is reported as 11.2 ± 3.6 ng/mL. The “Plasma AP-III concn.” value ([1]; rat, AP-III 450 ng/kg/min i.v. infusion, 60 min) was 12.8 ± 5.8 ng/mL, the “Plasma AP-III concn.” value ([1]; rat, AP-III 900 ng/kg/min i.v. infusion, 45 min) was 29.8 ± 7.6 ng/mL and the “Plasma AP-III concn.” value ([1]; rat, AP-III 900 ng/kg/min i.v. infusion, 60 min) was 23.0 ± 6.0 ng/mL. The “Plasma AP-III concn.” value ([1]; rat, no AP-III infusion (dextrose/saline only, basal AP-III), 45 min) was 0.6 ± 0.3 ng/mL, the “Plasma AP-III concn.” value ([1]; rat, no AP-III infusion (dextrose/saline only, basal AP-III), 60 min) was 0.5 ± 0.2 ng/mL and the “Increase of plasma AP-III levels after thiorphan administration” value ([1]; rat, thiorphan 3 mg/kg given 30 min after start of various AP-III infusion rates) was 2-3 fold. The “Basal levels of AP-III after inhibitor” value ([1]; rats receiving no exogenous peptide, thiorphan 3 mg/kg) was “did not increase”, the “Peak area as % Initial AP: AP” value ([2]; (c) 40 μM AP-I) was 27.3% and the “Peak area as % Initial AP: AP + des Ser^1 -AP” value ([2]; (c) 40 μM AP-I) was 87.9%. For the same molecule, the “Peak area as % Initial AP: des Ser^1 -AP” value ([2]; (c) 40 μM AP-I) was 60.6%, the “Peak area as % Initial AP: AP” value ([2]; (c) 40 μM AP-III) was 38.1% and the “Peak area as % Initial AP: AP + des Ser^1 -AP” value ([2]; (c) 40 μM AP-III) was 86.1%. The “Peak area as % Initial AP: des Ser^1 -AP” value ([2]; (c) 40 μM AP-III) was 48.0%, the “Peak area as % Initial AP: AP” value ([2]; (c) 40 μM SLRR(Met^8)AP-III) was 86.5% and the “Peak area as % Initial AP: AP + des Ser^1 -AP” value ([2]; (c) 40 μM SLRR(Met^8)AP-III) was 86.5%. The “Peak area as % Initial AP: des Ser^1 -AP” value ([2]; (c) 40 μM SLRR(Met^8)AP-III) was 0%.
